Source: PMC9367672, “In vitro differences in toddalolactone metabolism in various species and its effect on cytochrome P450 expression” (Pharmaceutical Biology, 2022)

Columns and labels:
HLMs = assay: Chemical inhibition assay: formation of P4 from toddalolactone in HLMs; assay type: in vitro ADME, human; details: HLMs with toddalolactone and NADPH-generating system; ketoconazole 1 μM, clobetasol propionate 1.8 μM, quinidine 10 μM; vs no inhibitor
Procedure: All incubation assays were completed in triplicate. The data are presented as mean ± standard deviation (SD).
Specific inhibitors for P450 isoforms were used to explore the contribution of CYP isoforms to the biotransformation of toddalolactone. […] In brief, toddalolactone was incubated with HLMs and an NADPH-generating system in the presence and absence (control) of the aforementioned specific inhibitors.

CYP3A5 = CYP3A5 (Homo sapiens, UniProt P20815); design: purchased Corning Life Sciences (Corning, MA); host or cells: Saccharomyces cerevisiae; method as in Wright et al. [2020]; details: at 1.8 μM; ref Wright et al. [2020]; cited from earlier work
[1] = substrate: COc1cc2oc(=O)ccc2c(OC)c1C[C@@H](O)C(C)(C)O; assay: cells, lysate or membranes named; details: P4 formation, toddalolactone 1–200 μM, pH 7.4, 37.0 °C
Procedure: The CYP reaction system (200 μL) consisted of 0.1 M potassium phosphate buffer (pH 7.4), an NADPH-generating system (1 mM NADPH, 10 mM G-6-P, 1 unit/mL G-6-PD, 4 mM MgCl2), and liver microsomes or recombinant human microsomes (supersomes). Each of the in vitro enzymatic assays using liver microsomes was linear with respect to incubation time and amount of protein. After a pre-incubation at 37 °C for 3 min, the reactions were initiated by adding NADP^+. After incubating for 60 min, the reactions were quenched by adding 200 μL of ice-cold acetonitrile. Samples were centrifuged at 18,000 g for 15 min at 4 °C and 10 μL of supernatant was analyzed using an HPLC system. NADPH or CYP enzyme sources were not used in the control group to ensure that the metabolic reactions were CYP- and NADPH-dependent. All incubation assays were completed in triplicate. The data are presented as mean ± standard deviation (SD).
The enzyme kinetics of toddalolactone in oxidative metabolism and glucuronidation were determined by incubating liver microsomes (0.2 mg/mL) or CYPs (15 nM) with different concentrations of toddalolactone (1–200 μM). The kinetic parameters including Km and Vmax were obtained by fitting the experimental data to the Michaelis–Menten equation (Equation (1)), biphasic kinetics equation (Equation (2)), or substrate inhibition equation (Equation (3)) (He et al. [2018]), and the results were graphically represented on Eadie–Hofstee plots. The in vitro intrinsic clearance (CLint) was calculated based on the Vmax/Km ratio. Metabolites were quantified using the standard curve for toddalolactone because of the absence of metabolite standards. All incubations were repeated in three independent experiments. Kinetic constants were expressed with mean ± SD: (1) V=Vmax×[S]/Km+[S] (2) V=Vmax1×[S]/Ks1+[S]+Vmax2×[S]/Ks2+[S] […]

Molecule: CCC(=O)O[C@]1(C(=O)CCl)[C@@H](C)C[C@H]2[C@@H]3CCC4=CC(=O)C=C[C@]4(C)[C@@]3(F)[C@@H](O)C[C@@]21C [clobetasol propionate]
- inhibition of formation of P4 (HLMs): ~40%
- inhibition of CYP3A5 (CYP3A5): 90%

B1: CYP1A1 (Homo sapiens) (protein)
chain: MLFPISMSATEFLLASVIFCLVFWVIRASRPQVPKGLKNPPGPWGWPLIGHMLTLGKNPHLALSRMSQQYGDVLQIRIGSTPVVVLSGLDTIRQALVRQGDDFKGRPDLYTFTLISNGQSMSFSPDSGPVWAARRRLAQNGLKSFSIASDPASSTSCYLEEHVSKEAEVLISTLQELMAGPGHFNPYRYVVVSVTNVICAICFGRRYDHNHQELLSLVNLNNNFGEVVGSGNPADFIPILRYLPNPSLNAFKDLNEKFYSFMQKMVKEHYKTFEKGHIRDITDSLIEHCQEKQLDENANVQLSDEKIINIVLDLFGAGFDTVTTAISWSLMYLVMNPRVQRKIQEELDTVIGRSRRPRLSDRSHLPYMEAFILETFRHSSFVPFTIPHSTTRDTSLKGFYIPKGRCVFVNQWQINHDQKLWVNPSEFLPERFLTPDGAIDKVLSEKVIIFGMGKRKCIGETIARWEVFLFLAILLQRVEFSVPLGVKVDMTPIYGLTMKHACCEHFQMQLRS
- kcat ([1]; other: recombinant CYP1A1 (15 nM)): 0.76 ± 0.03 pmol/min/nmol CYP

B2: CYP3A5 (Homo sapiens) (protein)
chain: MDLIPNLAVETWLLLAVSLVLLYLYGTRTHGLFKRLGIPGPTPLPLLGNVLSYRQGLWKFDTECYKKYGKMWGTYEGQLPVLAITDPDVIRTVLVKECYSVFTNRRSLGPVGFMKSAISLAEDEEWKRIRSLLSPTFTSGKLKEMFPIIAQYGDVLVRNLRREAEKGKPVTLKDIFGAYSMDVITGTSFGVNIDSLNNPQDPFVESTKKFLKFGFLDPLFLSIILFPFLTPVFEALNVSLFPKDTINFLSKSVNRMKKSRLNDKQKHRLDFLQLMIDSQNSKETESHKALSDLELAAQSIIFIFAGYETTSSVLSFTLYELATHPDVQQKLQKEIDAVLPNKAPPTYDAVVQMEYLDMVVNETLRLFPVAIRLERTCKKDVEINGVFIPKGSMVVIPTYALHHDPKYWTEPEEFRPERFSKKKDSIDPYIYTPFGTGPRNCIGMRFALMNMKLALIRVLQNFSFKPCKETQIPLKLDTQGLLQPEKPIVLKVDSRDGTLSGE
- kcat ([1]; other: recombinant CYP3A5 (15 nM)): 0.68 ± 0.04 pmol/min/nmol CYP
